Laboratory results reported in PMC2009384, “The carcinogenicity of polycyclic hydrocarbon epoxides in newborn mice” (British Journal of Cancer, 1975).

System: newborn Swiss mice
Experiment: Experiment II: carcinogenicity in newborn mice, chrysene, 7-methylbenz(a)anthracene and K region epoxides (s.c. injection, tumour incidence to 70-75 weeks)
Conditions: for effect on the incidence of liver, lung or other tumours: in the doses tested (3 x 100 µg or 1 x 60 µg)
Text: Br. J. Cancer (1975) 31, 182 THE CARCINOGENICITY OF POLYCYCLIC HYDROCARBON EPOXIDES IN NEWBORN MICE P. L. GROVER, P. SIMS, B. C. V. MITCHLEY AND F. J. C. ROE From the Chester Beatty Research Institute, Institute of Cancer Research, Royal Cancer Hospital, Fulham Road, London, SW3 6JB Received 9 August 1974. […] THE HYPOTHESIS that the carcino- genicity of polycyclic hydrocarbons is associated with the formation of epoxide metabolites (Grover, Hewer and Sims, 1971, 1972; Keysell et al., 1973) is sup- ported by some experimental evidence but remains unproven. […] The epoxides can also act as alkylating agents (Grover and Sims, 1970) and as mutagens (Ames, Sims and Grover, 1972; Huberman et al., 1971; Cookson, Sims and Grover, 1971; Fahmy and Fahmy, 1973). […] The newborn mouse, which is susceptible to carcinogenic polycyclic hydrocarbons (Roe, Rowson and Salaman, 1961; Roe, Mitchley and Walters, 1963; Walters and Roe, 1964, 1966) can be considered as a convenient source of several types of rapidly dividing cells. Consequently we have tested the K region epoxides derived from phenanthrene, benz(a)anthracene, 7-methylbenz(a)anthracene, dibenz(a,h)- anthracene, chrysene and 3-methylchol- anthrene, together with some of the CARCINOGENICITY OF POLYCYCLIC HYDROCARBON EPOXIDES IN MICE 183 parent hydrocarbons, for carcinogenicity using newborn mice. This paper presents the results that were obtained in these experiments. MATERIALS AND METHODS The polycyclic hydrocarbon epoxides, phenanthrene 9,10-oxide, benz(a)anthracene 5,6-oxide, 7-methylbenz(a)anthracene 5,6- oxide, dibenz(a,h)anthracene 5,6-oxide, chry- sene 5,6-oxide and 3-methylcholanthrene 11,12-oxide were prepared from the parent hydrocarbons (Newman and Blum, 1964; Boyland and Sims, 1965; Sims 1966). Two experiments were undertaken fol- lowing similar protocols. For each experi- ment Swiss mice from a specific pathogen- free colony were time mated so as to produce a large number of litters over the course of 2 or 3 days. […] Test compounds were suspended in poly- ethylene glycol (PEG) 400 and injections of 0-02 ml of the suspension were given by introducing a 25 gauge hypodermic needle through the skin near the root of the tail and threading it subcutaneously to deliver the injected material in the interscapular region. Injections were given to every mouse on the first day or first 3 days of life. The details of treatments and numbers of mice of each sex in each group are shown in Table I (Experiment I) and Table II (Ex- periment II). Surviving mice were weaned when they w ere 21 days old. Thereafter, males and females w ere separated and housed 6 per cage in metal boxes. A mixture of sawdust and wood shavings was used as bedding. The mice were fed on a standard cubed diet (Formulation 86 from C. Holdman and Sons (Plow co Feeds), Byers Lane, South Godstone, Surrey) and water was given ad libitum. Mice were inspected daily, and at weekly intervals they were weighed and palpated for tumours and other lesions. […] The experiment was terminated when surviving mice were between 70 and 75 weeks old. A full routine post- mortem examination, which included disten- sion of the urinary bladder with fixative, was carried out. The number of lesions thought to be neoplasms and the size of the largest such lesion in each organ affected were recorded. All tissues with suspected neoplasms were fixed in Bouin's solution. Haematoxylin and eosin stained 5 µm paraffin wax sections were prepared and examined microscopically. RESULTS The results of the two experiments in terms of tumour incidence are sum- marized in […].

[1] = females, 100 µg per treatment, 3 treatments
[2] = females, 100 µg per treatment, 3 treatments (Days 0, 1 and 2) s.c. in PEG 400
[3] = males, 100 µg per treatment, 3 treatments
[4] = males, 100 µg per treatment, 3 treatments (Days 0, 1 and 2) s.c. in PEG 400
[5] = females, 60 µg, 1 treatment (Day 0 only) s.c. in PEG 400
[6] = males, 60 µg, 1 treatment (Day 0 only) s.c. in PEG 400

## Cc1c2c(cc3ccccc13)-c1ccccc1C1OC21 (stereo not drawn) [7-Methylbenz(a)anthracene 5,6-oxide]
3 x 100 µg s.c., newborn, 7-methylbenz(a)anthracene pair
  incidence of lung tumours: slightly raised
[1]
  No. of mice examined at p.m. at termination of experiment (70-75th week) with liver tumours: 0
  No. of mice examined at p.m. at termination of experiment (70-75th week) with lung tumours: 6
  No. of mice examined at p.m. at termination of experiment (70-75th week) with multiple liver tumours: 0
  No. of mice examined at p.m. at termination of experiment (70-75th week) with multiple lung tumours: 3
  No. of mice examined at p.m. at termination of experiment (70-75th week) with other tumours: 0
  No. of mice examined at p.m. from 50-70th week with liver tumours: 0
  No. of mice examined at p.m. from 50-70th week with lung tumours: 1
  No. of mice examined at p.m. from 50-70th week with other tumours: 0
[2]
  No. of survivors at 50 weeks: 25
  No. of survivors at 70 weeks: 22
[3]
  No. of mice examined at p.m. at termination of experiment (70-75th week) with liver tumours: 4
  No. of mice examined at p.m. at termination of experiment (70-75th week) with lung tumours: 2
  No. of mice examined at p.m. at termination of experiment (70-75th week) with multiple liver tumours: 2
  No. of mice examined at p.m. at termination of experiment (70-75th week) with multiple lung tumours: 2
  No. of mice examined at p.m. at termination of experiment (70-75th week) with other tumours: 0
  No. of mice examined at p.m. from 50-70th week with liver tumours: 0
  No. of mice examined at p.m. from 50-70th week with lung tumours: 0
  No. of mice examined at p.m. from 50-70th week with other tumours: 0
[4]
  No. of survivors at 50 weeks: 20
  No. of survivors at 70 weeks: 20

## c1ccc2c(c1)-c1cc3ccc4ccccc4c3cc1C1OC21 (stereo not drawn) [Dibenz(a,h)anthracene 5,6-oxide]
females, 60 µg, 1 treatment
  No. of mice examined at p.m. at termination of experiment (70-75th week) with liver tumours: 0
  No. of mice examined at p.m. at termination of experiment (70-75th week) with lung tumours: 1
  No. of mice examined at p.m. at termination of experiment (70-75th week) with multiple liver tumours: 0
  No. of mice examined at p.m. at termination of experiment (70-75th week) with multiple lung tumours: 0
  No. of mice examined at p.m. at termination of experiment (70-75th week) with other tumours: 1
  No. of mice examined at p.m. from 50-70th week with liver tumours: 0
  No. of mice examined at p.m. from 50-70th week with lung tumours: 0
  No. of mice examined at p.m. from 50-70th week with other tumours: 0
[5]
  No. of survivors at 50 weeks: 20
  No. of survivors at 70 weeks: 19
  effect on the incidence of liver, lung or other tumours: without apparent effect
males, 60 µg, 1 treatment
  No. of mice examined at p.m. at termination of experiment (70-75th week) with liver tumours: 2
  No. of mice examined at p.m. at termination of experiment (70-75th week) with lung tumours: 0
  No. of mice examined at p.m. at termination of experiment (70-75th week) with multiple liver tumours: 1
  No. of mice examined at p.m. at termination of experiment (70-75th week) with multiple lung tumours: 0
  No. of mice examined at p.m. at termination of experiment (70-75th week) with other tumours: 0
  No. of mice examined at p.m. from 50-70th week with liver tumours: 0
  No. of mice examined at p.m. from 50-70th week with lung tumours: 0
  No. of mice examined at p.m. from 50-70th week with other tumours: 0
[6]
  No. of survivors at 50 weeks: 19
  No. of survivors at 70 weeks: 16

## Cc1ccc2cc3c(c4c2c1CC4)C1OC1c1ccccc1-3 (stereo not drawn) [3-Methylcholanthrene 11,12-oxide]
females, 60 µg, 1 treatment
  No. of mice examined at p.m. at termination of experiment (70-75th week) with liver tumours: 0
  No. of mice examined at p.m. at termination of experiment (70-75th week) with lung tumours: 3
  No. of mice examined at p.m. at termination of experiment (70-75th week) with multiple liver tumours: 0
  No. of mice examined at p.m. at termination of experiment (70-75th week) with multiple lung tumours: 1
  No. of mice examined at p.m. at termination of experiment (70-75th week) with other tumours: 0
  No. of mice examined at p.m. from 50-70th week with liver tumours: 0
  No. of mice examined at p.m. from 50-70th week with lung tumours: 0
  No. of mice examined at p.m. from 50-70th week with other tumours: 0
[5]
  No. of survivors at 50 weeks: 27
  No. of survivors at 70 weeks: 25
  effect on the incidence of liver, lung or other tumours: without apparent effect
males, 60 µg, 1 treatment
  No. of mice examined at p.m. at termination of experiment (70-75th week) with liver tumours: 6
  No. of mice examined at p.m. at termination of experiment (70-75th week) with lung tumours: 5
  No. of mice examined at p.m. at termination of experiment (70-75th week) with multiple liver tumours: 1
  No. of mice examined at p.m. at termination of experiment (70-75th week) with multiple lung tumours: 0
  No. of mice examined at p.m. at termination of experiment (70-75th week) with other tumours: 0
  No. of mice examined at p.m. from 50-70th week with liver tumours: 0
  No. of mice examined at p.m. from 50-70th week with lung tumours: 0
  No. of mice examined at p.m. from 50-70th week with other tumours: 0
[6]
  No. of survivors at 50 weeks: 28
  No. of survivors at 70 weeks: 26
